Reference: US20240043404A1 (AbbVie Inc., priority 2009, published 2024)
Where two headings read alike, the source gives them in different places.

Tested on: RS4;11 cells
Assay: RS4;11 cell viability assay (CellTiter Glo);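 also: acute lymphoblastic leukemia line RS4,11, EC50 derived from percentage of viable cells after treatment relative to untreated controls, cell killing taken as a measure of Bcl-2 inhibition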
Type: cell-based, human
Conditions: Homo sapiens, read-out: RS4
[1] = RS4-11, 48 h, 50,000 cells per well, 10% human serum, 48 hours, 11 EC50 Values
[2] = RS4-11, Table 5, direct comparison Z=N with corresponding analogs Z=C, 11 EC50

Protocol: The acute lymphoblastic leukemia (ALL) cell line RS4;11 was used as the primary human cell line to assess the cellular activity of Bcl-2 selective agents in vitro and their efficacy in vivo.
Cell cytotoxicity EC50 values were assessed using CellTiter Glo (Promega) according to the manufacturer's recommendations. The EC50 values were determined as a percentage of viable cells following treatment compared to the untreated control cells.

EC50 [1] [nM]	Compound	EC50 [2] [nM]	EC50 (RS4-11, Table 4, selected compounds in U.S. Pat. Application No. 12/631404, 11 EC50) [nM]
68.6	CC1(C)CCC(CN2CCN(c3ccc(C(=O)NS(=O)(=O)c4ccc(NC5CCN(S(C)(=O)=O)CC5)c([N+](=O)[O-])c4)c(Oc4cnc5[nH]ccc5c4)c3)CC2)=C(c2ccc(Cl)cc2)C1 [Example 80, 4-(4-{[2-(4-chlorophenyl)-4,4-dimethylcyclohex-1-en-1-yl]methyl}piperazin-1-yl)-N-[(4-{[1-(methylsulfonyl)piperidin-4-yl]amino}-3-nitrophenyl)sulfonyl]-2-(1H-pyrrolo[2,3-b]pyridin-5-yloxy)benzamide]	–	–
48.1	CC1(C)CCC(CN2CCN(c3ccc(C(=O)NS(=O)(=O)c4ccc(NC5CCS(=O)(=O)CC5)c([N+](=O)[O-])c4)c(Oc4cnc5[nH]ccc5c4)c3)CC2)=C(c2ccc(Cl)cc2)C1 [Example 81, 4-(4-{[2-(4-chlorophenyl)-4,4-dimethylcyclohex-1-en-1-yl]methyl}piperazin-1-yl)-N-({4-[(1,1-dioxidotetrahydro-2H-thiopyran-4-yl)amino]-3-nitrophenyl}sulfonyl)-2-(1H-pyrrolo[2,3-b]pyridin-5-yloxy)benzamide]	–	–
684	CC1(C)CCC(CN2CCN(c3ccc(C(=O)NS(=O)(=O)c4ccc(Cl)c([N+](=O)[O-])c4)c(Oc4cnc5[nH]ccc5c4)c3)CC2)=C(c2ccc(Cl)cc2)C1 [Example 82, N-[(4-chloro-3-nitrophenyl)sulfonyl]-4-(4-{[2-(4-chlorophenyl)-4,4-dimethylcyclohex-1-en-1-yl]methyl}piperazin-1-yl)-2-(1H-pyrrolo[2,3-b]pyridin-5-yloxy)benzamide]	–	–
197	CC1(C)CCC(CN2CCN(c3ccc(C(=O)NS(=O)(=O)c4ccc(NC5CCN(CC(F)(F)F)CC5)c([N+](=O)[O-])c4)c(Oc4cnc5[nH]ccc5c4)c3)CC2)=C(c2ccc(Cl)cc2)C1 [Example 83, 4-(4-{[2-(4-chlorophenyl)-4,4-dimethylcyclohex-1-en-1-yl]methyl}piperazin-1-yl)-N-[(3-nitro-4-{[1-(2,2,2-trifluoroethyl)piperidin-4-yl]amino}phenyl)sulfonyl]-2-(1H-pyrrolo[2,3-b]pyridin-5-yloxy)benzamide]	–	–
1020	CC1(C)CCC(CN2CCN(c3ccc(C(=O)NS(=O)(=O)c4cc(F)c(NCC5CCOCC5)c(Cl)c4)c(Oc4cnc5[nH]ccc5c4)c3)CC2)=C(c2ccc(Cl)cc2)C1 [Example 86, N-({3-chloro-5-fluoro-4-[(tetrahydro-2H-pyran-4-ylmethyl)amino]phenyl}sulfonyl)-4-(4-{[2-(4-chlorophenyl)-4,4-dimethylcyclohex-1-en-1-yl]methyl}piperazin-1-yl)-2-(1H-pyrrolo[2,3-b]pyridin-5-yloxy)benzamide]	–	–
29.5	CC1(C)CCC(CN2CCN(c3ccc(C(=O)NS(=O)(=O)c4ccc(NC5CCN(C(CF)CF)CC5)c([N+](=O)[O-])c4)c(Oc4cnc5[nH]ccc5c4)c3)CC2)=C(c2ccc(Cl)cc2)C1 [Example 95, 4-(4-{[2-(4-chlorophenyl)-4,4-dimethylcyclohex-1-en-1-yl]methyl}piperazin-1-yl)-N-{[4-({1-[2-fluoro-1-(fluoromethyl)ethyl]piperidin-4-yl}amino)-3-nitrophenyl]sulfonyl}-2-(1H-pyrrolo[2,3-b]pyridin-5-yloxy)benzamide]	–	–
55.6	CC1(C)CCC(CN2CCN(c3ccc(C(=O)NS(=O)(=O)c4ccc(NC5CCN(CC(F)F)CC5)c([N+](=O)[O-])c4)c(Oc4cnc5[nH]ccc5c4)c3)CC2)=C(c2ccc(Cl)cc2)C1 [Example 97, 4-(4-{[2-(4-chlorophenyl)-4,4-dimethylcyclohex-1-en-1-yl]methyl}piperazin-1-yl)-N-[(4-{[1-(2,2-difluoroethyl)piperidin-4-yl]amino}-3-nitrophenyl)sulfonyl]-2-(1H-pyrrolo[2,3-b]pyridin-5-yloxy)benzamide]	–	–
22.9	CC1(C)CCC(CN2CCN(c3ccc(C(=O)NS(=O)(=O)c4ccc(NC5CCN(C6CC6)CC5)c([N+](=O)[O-])c4)c(Oc4cnc5[nH]ccc5c4)c3)CC2)=C(c2ccc(Cl)cc2)C1 [Example 98, 4-(4-{[2-(4-chlorophenyl)-4,4-dimethylcyclohex-1-en-1-yl]methyl}piperazin-1-yl)-N-({4-[(1-cyclopropylpiperidin-4-yl)amino]-3-nitrophenyl}sulfonyl)-2-(1H-pyrrolo[2,3-b]pyridin-5-yloxy)benzamide]	–	–
1390	CC1(C)CCC(CN2CCN(c3ccc(C(=O)NS(=O)(=O)c4ccc(NCC5(N6CCOCC6)CCCCC5)c([N+](=O)[O-])c4)c(Oc4cnc5[nH]ccc5c4)c3)CC2)=C(c2ccc(Cl)cc2)C1 [Example 99, 4-(4-{[2-(4-chlorophenyl)-4,4-dimethylcyclohex-1-en-1-yl]methyl}piperazin-1-yl)-N-[(4-{[(1-morpholin-4-ylcyclohexyl)methyl]amino}-3-nitrophenyl)sulfonyl]-2-(1H-pyrrolo[2,3-b]pyridin-5-yloxy)benzamide]	–	–
137	CC1(C)CCC(CN2CCN(c3ccc(C(=O)NS(=O)(=O)c4ccc(N[C@H]5CC[C@H](N(C6CC6)C6CC6)CC5)c([N+](=O)[O-])c4)c(Oc4cnc5[nH]ccc5c4)c3)CC2)=C(c2ccc(Cl)cc2)C1 [Example 100, Trans-4-(4-{[2-(4-chlorophenyl)-4,4-dimethylcyclohex-1-en-1-yl]methyl}piperazin-1-yl)-N-[(4-{[4-(dicyclopropylamino)cyclohexyl]amino}-3-nitrophenyl)sulfonyl]-2-(1H-pyrrolo[2,3-b]pyridin-5-yloxy)benzamide]	–	–

More lines, now with the values behind:

Compound	EC50 [1] [nM]	EC50 [2] [nM]	EC50 (RS4-11, Table 4, selected compounds in U.S. Pat. Application No. 12/631404, 11 EC50) [nM]
O=C(NS(=O)(=O)c1ccc(NCC2CCOCC2)c([N+](=O)[O-])c1)c1ccc(N2CCN(CC3=C(c4ccc(Cl)cc4)CCC4(CCCC4)C3)CC2)cc1Oc1cnc2[nH]ccc2c1 [Example 79, 4-(4-{[8-(4-chlorophenyl)spiro[4.5]dec-7-en-7-yl]methyl}piperazin-1-yl)-N-({3-nitro-4-[(tetrahydro-2H-pyran-4-ylmethyl)amino]phenyl}sulfonyl)-2-(1H-pyrrolo[2,3-b]pyridin-5-yloxy)benzamide]	64.9	–	–
CC1(C)CCC(CN2CCN(c3ccc(C(=O)NS(=O)(=O)c4cnc(OC5CCN(C6CCOCC6)CC5)c(C#N)c4)c(Oc4cnc5[nH]ccc5c4)c3)CC2)=C(c2ccc(Cl)cc2)C1 [Example 84, 4-(4-{[2-(4-chlorophenyl)-4,4-dimethylcyclohex-1-en-1-yl]methyl}piperazin-1-yl)-N-({5-cyano-6-[(1-tetrahydro-2H-pyran-4-ylpiperidin-4-yl)oxy]pyridin-3-yl}sulfonyl)-2-(1H-pyrrolo[2,3-b]pyridin-5-yloxy)benzamide]	158	–	–
CC(C)c1cc(S(=O)(=O)NC(=O)c2ccc(N3CCN(CC4=C(c5ccc(Cl)cc5)CC(C)(C)CC4)CC3)cc2Oc2cnc3[nH]ccc3c2)cnc1OCC1CCOCC1 [Example 85, 4-(4-{[2-(4-chlorophenyl)-4,4-dimethylcyclohex-1-en-1-yl]methyl}piperazin-1-yl)-N-{[5-isopropyl-6-(tetrahydro-2H-pyran-4-ylmethoxy)pyridin-3-yl]sulfonyl}-2-(1H-pyrrolo[2,3-b]pyridin-5-yloxy)benzamide]	1950	–	–
O=C(NS(=O)(=O)c1ccc(NCCCN2CCOCC2)c([N+](=O)[O-])c1)c1ccc(N2CCN(Cc3ccccc3-c3ccc(Cl)cc3)CC2)cc1Oc1ccc2[nH]ccc2c1 [Example 88, 4-{4-[(4′-chloro-1,1′-biphenyl-2-yl)methyl]piperazin-1-yl}-2-(1H-indol-5-yloxy)-N-({4-[(3-morpholin-4-ylpropyl)amino]-3-nitrophenyl}sulfonyl)benzamide]	447	–	–
CN1CCC(Nc2ccc(S(=O)(=O)NC(=O)c3ccc(N4CCN(CC5=C(c6ccc(Cl)cc6)CC(C)(C)CC5)CC4)cc3Oc3ccc4[nH]ccc4c3)cc2[N+](=O)[O-])CC1 [Example 90, 4-(4-{[2-(4-chlorophenyl)-4,4-dimethylcyclohex-1-en-1-yl]methyl}piperazin-1-yl)-2-(1H-indol-5-yloxy)-N-({4-[(1-methylpiperidin-4-yl)amino]-3-nitrophenyl}sulfonyl)benzamide]	63	63	–
CC1(C)CCC(CN2CCN(c3ccc(C(=O)NS(=O)(=O)c4ccc(OCC5COCCO5)c([N+](=O)[O-])c4)c(Oc4ccc5[nH]ccc5c4)c3)CC2)=C(c2ccc(Cl)cc2)C1 (centres unmarked) [Example 92, 4-(4-{[2-(4-chlorophenyl)-4,4-dimethylcyclohex-1-en-1-yl]methyl}piperazin-1-yl)-N-{[4-(1,4-dioxan-2-ylmethoxy)-3-nitrophenyl]sulfonyl}-2-(1H-indol-5-yloxy)benzamide]	80.9	–	81
COCCNc1ccc(S(=O)(=O)NC(=O)c2ccc(N3CCN(CC4=C(c5ccc(Cl)cc5)CC(C)(C)CC4)CC3)cc2Oc2ccc3[nH]ccc3c2)cc1S(=O)(=O)C(F)(F)F [Example 93, 4-(4-{[2-(4-chlorophenyl)-4,4-dimethylcyclohex-1-en-1-yl]methyl}piperazin-1-yl)-2-(1H-indol-5-yloxy)-N-({4-[(2-methoxyethyl)amino]-3-[(trifluoromethyl)sulfonyl]phenyl}sulfonyl)benzamide]	> 5000	> 5000	–
CC1(C)CCC(CN2CCN(c3ccc(C(=O)NS(=O)(=O)c4ccc(NCC5CCOCC5)c(S(=O)(=O)C(F)(F)F)c4)c(Oc4ccc5[nH]ccc5c4)c3)CC2)=C(c2ccc(Cl)cc2)C1 [Example 94, 4-(4-{[2-(4-chlorophenyl)-4,4-dimethylcyclohex-1-en-1-yl]methyl}piperazin-1-yl)-2-(1H-indol-5-yloxy)-N-({4-[(tetrahydro-2H-pyran-4-ylmethyl)amino]-3-[(trifluoromethyl)sulfonyl]phenyl}sulfonyl)benzamide]	1690	1690	–
CC1(C)CCC(CN2CCN(c3ccc(C(=O)NS(=O)(=O)c4cnc(OCC5(F)CCOCC5)c(Cl)c4)c(Oc4cnc5[nH]ccc5c4)c3)CC2)=C(c2ccc(Cl)cc2)C1 [Example 96, N-({5-chloro-6-[(4-fluorotetrahydro-2H-pyran-4-yl)methoxy]pyridin-3-yl}sulfonyl)-4-(4-{[2-(4-chlorophenyl)-4,4-dimethylcyclohex-1-en-1-yl]methyl}piperazin-1-yl)-2-(1H-pyrrolo[2,3-b]pyridin-5-yloxy)benzamide]	43.6	–	–
